Laboratory results: patent publication US10308683B2, “Bicyclic lipolantipeptide, preparation and use as antimicrobial agent” (priority 2015, dated 2019)

Experiments:
[1] = tested on: S. pneumoniae 6883 (Penicillin resistant); conditions: Table 3, Gram-positive aerobe
M. tuberculosis H37Rv = conditions: Table 3, Mycobacteria
[2] = tested on: E. faecium ATCC1858 (Vancomycin (Van) sensitive); conditions: Table 3, Gram-positive aerobe
Method: (§1) Methods for Dilution Antibacterial Susceptibility Tests for Bacteria That Grow Aerobically; Approved Standard—Tenth Edition (2015). Clinical and Laboratory Standards Institute Document M07-A10. • 2. Methods for Antimicrobial Susceptibility Testing of Anaerobic Bacteria; Approved Standard—Eighth Edition (2012). Clinical and Laboratory Standards Institute Document M11-A8. • 3. Antimycobacterial activity was determined as described in Journal of Clinical Microbiology (2009, 47:1773-1780) by Springer et al. Quantitative drug susceptibility testing of Mycobacterium tuberculosis by use of MGIT 960 and EpiCenter Instrumentation.

C. difficile ATCC 700057 = conditions: Table 3, Gram-positive anaerobe
Method: as §1

S. pyogenes 37352281 = conditions: Table 3, Gram-positive aerobe
Method: as §1

S. oralis 39151368 = conditions: Table 3, Gram-positive aerobe
Method: as §1

[3] = tested on: S. pneumoniae - ATCC 33400; conditions: Table 2
Method: as §1

S. mitis 39050149 = conditions: Table 3, Gram-positive aerobe
Method: as §1

P. acnes 1201 = conditions: Table 3, Gram-positive anaerobe
Method: as §1

[4] = tested on: S. pneumoniae R119 (R6 like) (Penicillin sensitive); conditions: Table 3, Gram-positive aerobe
Method: as §1

S. agalactiae 31432663 = conditions: Table 3, Gram-positive aerobe
Method: as §1

[5] = tested on: S. epidermidis 37361192 (Methicillin sensitive); conditions: Table 3, Gram-positive aerobe
Method: as §1

[6] = tested on: E. faecium 31430797 (Van B resistant); conditions: Table 3, Gram-positive aerobe
S. aureus - USA300 = conditions: Table 2
[7] = tested on: S. aureus - ATCC 13709 (Fully susceptible); test: MIC, CLSI dilution susceptibility test (aerobic); format: cell-based; conditions: for Minimal Inhibitory Concentration (MIC): Table 2, S. aureus - ATCC 13709 (Fully susceptible)
Source text: Clinical and Laboratory Standards Institute Document M07-A10. • 2. […] Clinical and Laboratory Standards Institute Document M11-A8. • 3.

[8] = tested on: S. epidermidis 31435861 (Methicillin resistant); conditions: Table 3, Gram-positive aerobe
[9] = tested on: S. aureus - ATCC 1683 (Methicillin resistant); conditions: for Minimal Inhibitory Concentration (MIC): Table 2, S. aureus - ATCC 1683 (Methicillin resistant)
[10] = tested on: E. faecium 31152980 (Van A resistant); conditions: Table 3, Gram-positive aerobe

| Structure (SMILES) | MIC [1] [µg/mL] | MIC (M. tuberculosis H37Rv) [µg/mL] | MIC [2] [µg/mL] | MIC (C. difficile ATCC 700057) [µg/mL] | MIC (S. pyogenes 37352281) [µg/mL] | MIC (S. oralis 39151368) [µg/mL] | Minimal Inhibitory Concentration (MIC) [3] [µg/mL] | MIC (S. mitis 39050149) [µg/mL] | MIC (P. acnes 1201) [µg/mL] | MIC [4] [µg/mL] | MIC (S. agalactiae 31432663) [µg/mL] | MIC [5] [µg/mL] | MIC [6] [µg/mL] | Minimal Inhibitory Concentration (MIC) (S. aureus - USA300) [µg/mL] | Minimal Inhibitory Concentration (MIC) [7] [µg/mL] | MIC ([7]; Table 3, Gram-positive aerobe, S. aureus ATCC13709, Methicillin sensitive) [µg/mL] | MIC [8] [µg/mL] | Minimal Inhibitory Concentration (MIC) [9] [µg/mL] | MIC ([9]; Table 3, Gram-positive aerobe, S. aureus ATCC1683, Methicillin resistant) [µg/mL] | MIC [10] [µg/mL] |
| --- | --- | --- | --- | --- | --- | --- | --- | --- | --- | --- | --- | --- | --- | --- | --- | --- | --- | --- | --- | --- |
| C/N=C(\NC)NCCCCCCCCCCCCCCCCC(=O)NC(C)C(=O)NC1CC2(CS/C=C\NC(=O)C(CO)NC(=O)C(CCC(N)=O)NC2=O)NC(=O)CNC(=O)C(CC(C)C)NC1=O (stereo not drawn) [Compound C] | ≤0.125 | ≤1 | ≤0.5 | ≤0.25 | ≤0.5 | ≤0.25 | ≤0.08 | ≤0.25 | ≤0.06 | ≤0.125 | ≤0.25 | ≤0.25 | ≤0.25 | ≤0.08 | ≤0.04 | ≤0.04 | ≤0.25 | ≤0.3 | ≤0.3 | ≤0.25 |
| C/N=C(\NC)NCCCCCCCCCCCCCCC(=O)NC(C)C(=O)NC1CC2(CS/C=C\NC(=O)C(CO)NC(=O)C(CCC(N)=O)NC2=O)NC(=O)CNC(=O)C(CC(C)C)NC1=O (stereo not drawn) [Compound A] |  |  |  |  |  |  | ≤0.15 |  |  |  |  |  |  | ≤0.08 | ≤0.04 |  |  | ≤0.3 |  |  |
